Reference: PubChem BioAssay AID1259407 (Chemical Carcinogenesis Research Information System (CCRIS), 2018)
The source made the active and inactive calls. How the calls were made is not given here.

System: CCRIS mutagenicity, Ames/micronucleus/aberration tests
Experiment: CCRIS mutagenicity studies
[1] = End Point: In vitro micronucleus, Test System: Human lymphoblastoid TK6 cells, Metabolic Activation: None

**Q.** Which mutagenic call (End Point: IN VITRO MICRONUCLEUS, Test System: CHL/IU CELLS, Metabolic Activation: NONE) does the source give for `O=c1[nH]cc(F)c(=O)[nH]1` here?
**A.** active; positive

**Q.** And the mutagenic call (End Point: IN VIVO CHROMOSOMAL ABERRATIONS, Test System: BONE MARROW CELLS, Species: MOUSE, Strain/Sex: SWISS/MALE, FEMALE, Route: IP)?
**A.** active; positive (aberrant metaphases)

**Q.** What about the mutagenic call (End Point: IN VIVO MICRONUCLEUS, Test System: BLOOD ERYTHROCYTES, Species: MOUSE, Strain/Sex: CD-1/MALE, Route: INTRAPERITONEAL INJECTION) of the same compound?
**A.** active; positive (at highest dose)

**Q.** What about the mutagenic call (End Point: IN VIVO MICRONUCLEUS, Test System: BONE MARROW POLYCHROMATIC ERYTHROCYTES, Species: MOUSE, Strain/Sex: SWISS/MALE, FEMALE, Route: IP) of the same compound?
**A.** active; positive

**Q.** What about the mutagenic call [1] of the same compound?
**A.** active; positive (p<0.001)

**Q.** And the mutagenic call (End Point: In vivo micronucleus, Test System: Micronucleated hepatocytes, Species: Rat, Strain/Sex: F344/Male, Route: Intraperitoneal)?
**A.** inactive; negative

**Q.** And the mutagenic call (Test System: AMES SALMONELLA TYPHIMURIUM, Strain/Indicator: TA98, Metabolic Activation: HAMSTER, LIVER, S-9, AROCLOR 1254 (10%), Method: PREINCUBATION)?
**A.** inactive; negative

**Q.** What about the mutagenic call (Test System: AMES SALMONELLA TYPHIMURIUM, Strain/Indicator: TA98, Metabolic Activation: NONE, Method: PREINCUBATION) of the same compound?
**A.** inactive; negative

**Q.** What about the mutagenic call (Test System: AMES SALMONELLA TYPHIMURIUM, Strain/Indicator: TA98, Metabolic Activation: NONE, Method: STANDARD PLATE) of the same compound?
**A.** inactive; negative

**Q.** And the mutagenic call (Test System: AMES SALMONELLA TYPHIMURIUM, Strain/Indicator: TA98, Metabolic Activation: RAT, LIVER, S-9, AROCLOR 1254 (10%), Method: PREINCUBATION)?
**A.** inactive; negative

**Q.** What about the mutagenic call (Test System: AMES SALMONELLA TYPHIMURIUM, Strain/Indicator: TA98, Metabolic Activation: S-9, Method: PREINCUBATION) of the same compound?
**A.** inactive; negative

**Q.** What about the mutagenic call (Test System: AMES SALMONELLA TYPHIMURIUM, Strain/Indicator: TA98, Metabolic Activation: S-9, Method: STANDARD PLATE) of the same compound?
**A.** inactive; negative

**Q.** What about the mutagenic call (Test System: AMES SALMONELLA TYPHIMURIUM, Strain/Indicator: TA100, Metabolic Activation: HAMSTER, LIVER, S-9, AROCLOR 1254 (10%), Method: PREINCUBATION) of the same compound?
**A.** inactive; negative

**Q.** And the mutagenic call (Test System: AMES SALMONELLA TYPHIMURIUM, Strain/Indicator: TA100, Metabolic Activation: NONE, Method: PREINCUBATION)?
**A.** inactive; negative

**Q.** And the mutagenic call (Test System: AMES SALMONELLA TYPHIMURIUM, Strain/Indicator: TA100, Metabolic Activation: NONE, Method: STANDARD PLATE)?
**A.** inactive; negative

**Q.** What about the mutagenic call (Test System: AMES SALMONELLA TYPHIMURIUM, Strain/Indicator: TA100, Metabolic Activation: RAT, LIVER, S-9, AROCLOR 1254 (10%), Method: PREINCUBATION) of the same compound?
**A.** inactive; negative

**Q.** What about the mutagenic call (Test System: AMES SALMONELLA TYPHIMURIUM, Strain/Indicator: TA100, Metabolic Activation: S-9, Method: PREINCUBATION) of the same compound?
**A.** inactive; negative

**Q.** And the mutagenic call (Test System: AMES SALMONELLA TYPHIMURIUM, Strain/Indicator: TA100, Metabolic Activation: S-9, Method: STANDARD PLATE)?
**A.** inactive; negative

**Q.** And the mutagenic call (Test System: AMES SALMONELLA TYPHIMURIUM, Strain/Indicator: TA102, Metabolic Activation: NONE, Method: STANDARD PLATE)?
**A.** inactive; negative

**Q.** And the mutagenic call (Test System: AMES SALMONELLA TYPHIMURIUM, Strain/Indicator: TA1535, Metabolic Activation: HAMSTER, LIVER, S-9, AROCLOR 1254 (10%), Method: PREINCUBATION)?
**A.** inactive; negative

**Q.** What about the mutagenic call (Test System: AMES SALMONELLA TYPHIMURIUM, Strain/Indicator: TA1535, Metabolic Activation: NONE, Method: PREINCUBATION) of the same compound?
**A.** inactive; negative

**Q.** And the mutagenic call (Test System: AMES SALMONELLA TYPHIMURIUM, Strain/Indicator: TA1535, Metabolic Activation: RAT, LIVER, S-9, AROCLOR 1254 (10%), Method: PREINCUBATION)?
**A.** inactive; negative

**Q.** What about the mutagenic call (Test System: AMES SALMONELLA TYPHIMURIUM, Strain/Indicator: TA1537, Metabolic Activation: HAMSTER, LIVER, S-9, AROCLOR 1254 (10%), Method: PREINCUBATION) of the same compound?
**A.** inactive; negative

**Q.** What about the mutagenic call (Test System: AMES SALMONELLA TYPHIMURIUM, Strain/Indicator: TA1537, Metabolic Activation: NONE, Method: PREINCUBATION) of the same compound?
**A.** inactive; negative

**Q.** And the mutagenic call (Test System: AMES SALMONELLA TYPHIMURIUM, Strain/Indicator: TA1537, Metabolic Activation: NONE, Method: STANDARD PLATE)?
**A.** inactive; negative

**Q.** And the mutagenic call (Test System: AMES SALMONELLA TYPHIMURIUM, Strain/Indicator: TA1537, Metabolic Activation: RAT, LIVER, S-9, AROCLOR 1254 (10%), Method: PREINCUBATION)?
**A.** inactive; negative

**Q.** And the mutagenic call (Test System: AMES SALMONELLA TYPHIMURIUM, Strain/Indicator: TA2638, Metabolic Activation: NONE, Method: STANDARD PLATE)?
**A.** inactive; negative

**Q.** What about the mutagenic call (Test System: E. COLI, Strain/Indicator: WP2 (HCR), Metabolic Activation: NONE, Method: STANDARD PLATE) of the same compound?
**A.** inactive; negative

**Q.** And the mutagenic call (Test System: E. COLI, Strain/Indicator: WP2 (HCR), Metabolic Activation: S-9, Method: STANDARD PLATE)?
**A.** inactive; negative

**Q.** What about the mutagenic call (Test System: E. COLI, Strain/Indicator: WP2 (PKM101), Metabolic Activation: NONE, Method: STANDARD PLATE) of the same compound?
**A.** inactive; negative

**Q.** And the mutagenic call (Test System: E. COLI, Strain/Indicator: WP2 UVRA (PKM101), Metabolic Activation: NONE, Method: STANDARD PLATE)?
**A.** inactive; negative

**Q.** What about the mutagenic call (Test System: MOUSE LYMPHOMA, Strain/Indicator: L5178Y (TK+/TK-), Metabolic Activation: NONE, Method: MICROWELL) of the same compound?
**A.** active; positive

**Q.** What about the mutagenic call (Test System: MOUSE LYMPHOMA, Strain/Indicator: L5178Y (TK+/TK-), Metabolic Activation: S-9, Method: MICROWELL) of the same compound?
**A.** active; positive

**Q.** With `CC[C@@]1(O)C(=O)OCc2c1cc1n(c2=O)Cc2cc3ccccc3nc2-1` as the compound, how does the mutagenic call [1] read?
**A.** active; positive (no dose response; toxicity may play a role)

**Q.** And the mutagenic call (End Point: In vivo micronucleus, Test System: Peripheral blood reticulocytes, Species: Mouse, Strain/Sex: CD2F1, Route: Oral)?
**A.** active; positive

**Q.** What about the mutagenic call (End Point: In vivo micronucleus, Test System: Peripheral blood reticulocytes, Species: Mouse, Strain/Sex: Muta Mouse, Route: Oral) of the same compound?
**A.** active; positive

**Q.** And the mutagenic call (Test System: CHINESE HAMSTER V-79, Strain/Indicator: V-79 (HPRT)/6-THIOGUANINE, Metabolic Activation: NONE)?
**A.** active; positive

**Q.** And the mutagenic call (Test System: LacZ plasmid mouse (C57BL/6J transgenic), Strain/Indicator: LacZ Mutant frequency, Method: Bone marrow and liver harvested 35 days after last dose)?
**A.** inactive; negative

**Q.** What about the mutagenic call (Test System: LacZ transgenic mouse (Muta Mouse), Strain/Indicator: LacZ Mutant frequency, Method: Bone marrow and liver harvested 35 days after last dose) of the same compound?
**A.** inactive; negative

**Q.** What about the mutagenic call (Test System: LacZ transgenic mouse (Muta Mouse), Strain/Indicator: LacZ Mutant frequency, Method: Liver and kidney harvested 37 days after last dose) of the same compound?
**A.** inactive; negative
